No end group written: not given here.
Columns and labels:
[1] = system: E. coli Y1088; assay: Zone of inhibition on lawn of E. coli Y1088; type: cell-based
[2] = system: Euglena gracilis; assay: Antiprotozoan activity, physical lysis by light microscopy; type: cell-based; conditions: approximate concentration, visual assessment by light microscopy
Source text: (§1) Table IV lists the approximate concentration of Magainins which induces physical lysis of several representative protozoan species. These determinations were made by visual assessment of the treated organisms by light microscopy. Of course, the optimal effective antimicrobial concentration of a particular Magainin can be easily determined in a routine manner without undue experimentation by techniques well known to one of ordinary skill in the art.

[3] = system: Amoeba proteus; assay: as above; type: cell-based; conditions: approximate concentration, visual assessment by light microscopy
Source text: as §1

[4] = system: Paramecium caudatum; assay: as above; type: cell-based; conditions: approximate concentration, visual assessment by light microscopy
Source text: as §1

[5] = system: Candida albicans (14053); assay: Minimal inhibitory concentration in trypticase soy broth; type: cell-based
Source text: (§2) Table III also lists the range of minimal inhibitory concentrations for various organisms assayed in trypticase soy broth. These determinations were made following standard techniques well known in the art and described in such publications as, DIFCO Manual, 10th edition, 1984, pages 78-80.

[6] = system: Serratia marcescens (8100); assay: as above; type: cell-based
Source text: as §2

[7] = system: Shigella flexneri (12022); assay: as above; type: cell-based
Source text: as §2

[8] = system: Staphyloccus epidermidis (1228); assay: as above; type: cell-based
Source text: as §2

[9] = system: Klebisiella pneumonia (13883); assay: as above; type: cell-based
Source text: as §2

[10] = system: Eschericia coli (25922); assay: as above; type: cell-based
Source text: as §2

[11] = system: Proteus vulgaris (13315); assay: as above; type: cell-based
Source text: as §2

[12] = system: Citrobacter freundii (8090); assay: as above; type: cell-based
Source text: as §2

[13] = system: Acinetobacter caloaceticus (19606); assay: as above; type: cell-based
Source text: as §2

[14] = system: Staphylococcus aureus (25923); assay: as above; type: cell-based
Source text: as §2

[15] = system: Salmonella typhimurium (14028); assay: as above; type: cell-based
Source text: as §2

[16] = system: Streptococcus faecalis (19433); assay: as above; type: cell-based
Source text: as §2

[17] = system: Streptococcus pyogenes (19615); assay: as above; type: cell-based
Source text: as §2

[18] = system: Enterobacter aerogenes (13048); assay: as above; type: cell-based
Source text: as §2

[19] = system: Eschericia coli D31; assay: as above; type: cell-based
Source text: as §2

[20] = system: Pseudomonas aeruginosa (27853); assay: as above; type: cell-based
Source text: as §2

[21] = system: E. coli D-31; assay: Comparison of potencies, MIC (Table V); type: cell-based; conditions: E. coli D-31 (Table V)
Source text: (§3) It is pointed that the addition of a carboxyl-terminal amide to Magainin II results in about a 5-fold increase in potency of the peptide in several systems when compared to Magainin II. This simple modification illustrates one of several ways of modifying the polypeptides of the present invention.

[22] = system: Pseudomonas aeruginosa; assay: Comparison of potencies, MIC (Table V); type: cell-based
Source text: as §3

[23] = system: Acanthomeba castellani; assay: Comparison of potencies, MIC (Table V); type: cell-based
Source text: as §3

[24] = system: Saccharomyces cerviscae; assay: Comparison of potencies, MIC (Table V); type: cell-based
Source text: as §3

[25] = system: Shigella sonnei (25931); assay: Minimal inhibitory concentration in trypticase soy broth; type: cell-based
Source text: as §2

[26] = system: Enterobacter sonnei (23355); assay: as above; type: cell-based
Source text: as §2

[27] = system: Plasmodium gallinaceum; assay: Activity against malarial parasite, direct light microscopy; type: cell-based; conditions: 100 ug/ml in phosphate buffered saline, within seconds
Description: Observations of activity were conducted by direct light microscopy. A sample of female and male zygotic forms of the chicken malarial parasite were suspended in phosphate buffered saline. Magainin II(g) was added to each at 100 ug/ml.

[28] = system: human sperm; assay: Spermicidal activity, sperm motility by light microscopy; type: cell-based; conditions: human sperm in phosphate buffered saline, room temperature
Description: Magainin II(g) was added in various concentrations to a suspension of human sperm in phosphate buffered saline. Motility was assayed by visual inspection under a light microscope. Observations were conducted at room temperature (about 22°-25° C.). The approximate number of motile sperm observed in 20 independent fields was noted as a function of concentration. Magainin II(g) inhibits sperm motility by 50% at 35 μg/ml and by 100% at 75 μg/ml.

[29] = system: Vero Cells; assay: Cytotoxicity by loss of Trypan Blue exclusion; type: cell-based, monkey; conditions: 30 minutes after addition, MEM with 10% fetal calf serum
Source text: (§4) This activity is considered a significant attribute of the Magainin peptides in that it permits their use in the killing of animal cells. […] The most resistant appears to be the epithelial cell from the oral mucosa. The most sensitive is a transformed monkey kidney cell. […] This includes anti-tumor activity, in vivo cytolysis or growth inhibition of malignant cells, such as in leukemias and selective reduction in specific cell populations (e.g., removal of lymphocytes from blood).
(§5) Cells were suspended in standard minimal Eagles medium containing 10% fetal calf serum. VERO cells and KB cells were obtained from the American Type Culture Collection. Human diploid fibroblasts were propagated from a primary dermal biopsy. Human lymphocytes were collected from a buffy coat preparation by centrifugation in ficoll-hyapaque medium. Human buccal epithelium was obtained by scraping the oral mucosa with a glass cover-slip and resuspending the cellular scraping in MEM. Cytotoxicity was determined by loss of Trypan Blue exclusion, following addition of dye to the medium. Cytotoxicity was assessed 30 minutes after addition of the peptide. Concentration noted represents the concentration of peptide resulting in 50% toxicity as determined visually by light microscopic examination of the treated cells.

[30] = system: Peripheral Human Lymphocytes; assay: Cytotoxicity by loss of Trypan Blue exclusion; type: cell-based; conditions: 30 minutes after addition
Source text: as §4, §5

[31] = system: Human Diploid Fibroblasts; assay: Cytotoxicity by loss of Trypan Blue exclusion; type: cell-based; conditions: 30 minutes after addition
Source text: as §4, §5

[32] = system: Human Buccal Epithelial Cells; assay: Cytotoxicity by loss of Trypan Blue exclusion; type: cell-based; conditions: 30 minutes after addition
Source text: as §4, §5

[33] = system: Human KB Cells; assay: Cytotoxicity by loss of Trypan Blue exclusion; type: cell-based; conditions: 30 minutes after addition
Source text: as §4, §5

[34] = system: HTLV III; assay: Anti-viral activity against HTLV III in SUPT1 tester cells; type: cell-based; conditions: 200 μg/ml, virus preincubated 37° C. 30 min
Description: HTLV III was obtained from culture media from the producing cell line A.3101. The media was diluted with MEM containing 10% fetal calf serum (FCS) to a viral concentration of about 10^4 pfu/ml. Magainin II(g) was added to the viral innoculum (1 ml) to a concentration of 200 μg/ml and incubated at 37° C. for 30 min. The viral innoculum was then added to a well containing 10^3 tester cells (cell line, SUPT1) and 1 ml of MEM with 10% FCS. Viral activity was assessed by formation of syncytia and cell death in the test cell culture as compared with cell cultures unexposed to Magainin peptides.

Row | Substance | Zone of Inhibition on Lawn of E. coli Y1088 Generated by 50 μg of the Peptide [1] [mm] | Concentration required for osmotic lysis [2] [µg/mL] | Concentration required for osmotic lysis [3] [µg/mL] | Concentration required for osmotic lysis [4] [µg/mL] | Minimal Inhibitory Concentration [5] [µg/mL] | Minimal Inhibitory Concentration [6] [µg/mL] | Minimal Inhibitory Concentration [8] [µg/mL] | Minimal Inhibitory Concentration [10] [µg/mL] | Minimal Inhibitory Concentration [11] [µg/mL] | Minimal Inhibitory Concentration [12] [µg/mL] | Minimal Inhibitory Concentration [13] [µg/mL] | Minimal Inhibitory Concentration [14] [µg/mL] | Minimal Inhibitory Concentration [15] [µg/mL] | Minimal Inhibitory Concentration [16] [µg/mL] | Minimal Inhibitory Concentration [17] [µg/mL] | Minimal Inhibitory Concentration [18] [µg/mL] | Minimal Inhibitory Concentration [19] [µg/mL] | Minimal Inhibitory Concentration [20] [µg/mL] | other results
1 | FLHSAKKFGKAFVGEIMNS [Magainin II(d), (NH2)FLHSAKKFGKAFVGEIMNS(OH)] | 2 |  |  |  |  |  |  |  |  |  |  |  |  |  |  |  |  |  | 
2 | GIGKFLHSAGKFGKAFVGEIMKS [Magainin I] |  | 5 | 5 | 5 | > 100 | > 100 | > 100 | 7 to 35 | > 100 | > 100 | 7 to 35 | > 100 | > 100 | > 100 | 7 to 35 | > 100 | 1 to 20 | > 100 | Minimal Inhibitory Concentration [7]: 35 to 70 µg/mL; Minimal Inhibitory Concentration [9]: > 100 µg/mL
3 | GIGKFLHSAKKFGKAFVGEIMN [Magainin III] |  | 5 | 5 | 5 | > 100 | > 100 | 35 to 70 | 7 to 35 | > 100 | 7 to 35 | 7 to 35 | > 100 | 35 to 70 | > 100 | 7 to 35 | > 100 | 1 to 10 | 35 to 70 | Minimal Inhibitory Concentration [9]: > 100 µg/mL
4 | GIGKFLHSAKKFGKAFVGEIMNS [Magainin II] |  | 5 | 5 | 5 | 35 to 70 | > 100 | 7 to 35 | 1 to 7 | > 100 | 7 to 35 | 1 to 7 | 35 to 70 | 35 to 70 | 35 to 70 | 1 to 7 | 7 to 35 | 1 to 10 | 35 to 70 | MIC [21]: 10 µg/mL; MIC [22]: 70 µg/mL; MIC [23]: 15 µg/mL; MIC [24]: 50 µg/mL; Minimal Inhibitory Concentration [25]: 1 to 7 µg/mL; Minimal Inhibitory Concentration [26]: 1 to 7 µg/mL
5 | GIGKFLHSAKKFGKAFVGEIMNS-NH2 [Magainin II(g)] | 15 |  |  |  |  |  |  |  |  |  |  |  |  |  |  |  |  |  | Effect on female and male zygotic forms of Plasmodium gallinaceum [27]: both forms underwent evident physical lysis; Concentration that inhibits sperm motility by 50% [28]: 35 µg/mL; Concentration that inhibits sperm motility by 100% [28]: 75 µg/mL; Concentration of peptide resulting in 50% toxicity [29]: 25 µg/mL; MIC [21]: 2 µg/mL; MIC [22]: 15 µg/mL; MIC [23]: 3 µg/mL; MIC [24]: 10 µg/mL; Concentration of peptide resulting in 50% toxicity [30]: 75 µg/mL; Concentration of peptide resulting in 50% toxicity [31]: 250 µg/mL; Concentration of peptide resulting in 50% toxicity [32]: 500 µg/mL; Concentration of peptide resulting in 50% toxicity [33]: 125 µg/mL; Reverse transcriptase activity in culture fluids [34]: no greater reverse transcriptase activity than uninfected cells; Viral activity by formation of syncytia and cell death in test cell culture ([34]; 2 weeks incubation): appeared identical to cultures not exposed to virus
6 | GIGKYLHSAKKFGKAFVGEIMNS-NH2 [Magainin II(h)] | 7 |  |  |  |  |  |  |  |  |  |  |  |  |  |  |  |  |  | 
7 | GKFLHSAKKFGKAFVGEIMNS [Magainin II(b)] | 10 |  |  |  |  |  |  |  |  |  |  |  |  |  |  |  |  |  | 
8 | HSAKKFGKAFVGEIMNS [Magainin II(f), (NH2)HSAKKFGKAFVGEIMNS(OH)] | 0 |  |  |  |  |  |  |  |  |  |  |  |  |  |  |  |  |  | Effect on female and male zygotic forms of Plasmodium gallinaceum [27]: no visible effect
9 | KFLHSAKKFGKAFVGEIMNS [Magainin II(c)] | 10 |  |  |  |  |  |  |  |  |  |  |  |  |  |  |  |  |  | 
10 | LHSAKKFGKAFVGEIMNS [Magainin II(e), (NH2)LHSAKKFGKAFVGEIMNS(OH)] | 1 |  |  |  |  |  |  |  |  |  |  |  |  |  |  |  |  |  | 
